The values below come from patent publication US10385057B2, “Pyrazole compounds and methods of making and using same” (Lundbeck La Jolla Research Center, Inc., priority 2015, dated 2019).

Structures are written as SMILES.

In one assay the target is T1, MAGL (Mus musculus, UniProt O35678).
T1 construct: mouse brain membrane fraction or cell lysates for mouse assays; from tissue
T1 sequence (O35678 1-303): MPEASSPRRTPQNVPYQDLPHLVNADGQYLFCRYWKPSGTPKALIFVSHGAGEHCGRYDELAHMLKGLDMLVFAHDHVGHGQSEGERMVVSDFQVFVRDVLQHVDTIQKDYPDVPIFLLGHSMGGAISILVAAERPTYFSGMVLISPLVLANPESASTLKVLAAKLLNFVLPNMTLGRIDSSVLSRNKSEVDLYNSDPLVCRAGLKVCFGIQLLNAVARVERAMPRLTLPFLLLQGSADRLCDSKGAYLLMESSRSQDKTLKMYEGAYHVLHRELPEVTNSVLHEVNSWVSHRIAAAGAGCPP
The experiment in a line: In vitro competitive activity-based protein profiling, mouse MAGL. Particulars: for inhibition at 1 µM: read-out: MAGL % inh. 1 μM (mouse). The assay is classed as biochemical. In short, it runs like this: (§1)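 Activity measured as fluorescent gel-band intensity of MAGL and FAAH after SDS-PAGE. Before labelling with FP-Rh or HT-01 (30 min, 37 °C), proteomes at 1.0 mg/mL (mouse brain membrane or lysates; human prefrontal cortex or cell membranes) were exposed to varying inhibitor concentrations for 30 min at 37 °C.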

For another assay, the target named is T2, FAAH (Mus musculus, UniProt O08914).
T2 construct: mouse brain membrane fraction or cell lysates for mouse assays; from tissue
T2 sequence (O08914 1-579): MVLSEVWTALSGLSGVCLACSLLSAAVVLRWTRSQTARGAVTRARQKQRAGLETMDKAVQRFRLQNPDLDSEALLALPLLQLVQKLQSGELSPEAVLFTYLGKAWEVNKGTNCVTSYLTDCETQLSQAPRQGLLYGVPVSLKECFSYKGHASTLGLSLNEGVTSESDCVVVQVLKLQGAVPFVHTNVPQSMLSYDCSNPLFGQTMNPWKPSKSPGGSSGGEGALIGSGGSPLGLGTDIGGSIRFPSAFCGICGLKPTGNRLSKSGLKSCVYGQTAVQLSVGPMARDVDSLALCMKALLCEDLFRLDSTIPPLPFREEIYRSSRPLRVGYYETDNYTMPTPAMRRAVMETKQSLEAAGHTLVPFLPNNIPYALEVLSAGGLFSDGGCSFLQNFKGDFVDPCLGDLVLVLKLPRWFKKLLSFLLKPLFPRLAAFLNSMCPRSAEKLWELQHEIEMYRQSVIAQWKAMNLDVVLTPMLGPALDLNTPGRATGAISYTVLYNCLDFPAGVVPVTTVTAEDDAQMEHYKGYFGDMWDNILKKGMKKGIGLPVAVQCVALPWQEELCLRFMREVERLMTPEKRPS
The experiment in a line: In vitro competitive activity-based protein profiling, mouse FAAH. The assay is classed as biochemical. Particulars: for inhibition at 1 µM: read-out: FAAH % inh. 1 μM (mouse). In short, it runs like this: as §1

On to `O=C(N1CCC2(CCN(Cc3cccc(Oc4ccccc4)c3)C2)C1)n1cc(Cl)cn1` (centres unmarked) [Example 135, (4-chloro-1H-pyrazol-1-yl)(7-(3-phenoxybenzyl)-2,7-diazaspiro[4.4]nonan-2-yl)methanone], for which the 50% inhibitory concentration (IC50) is 100 to 1000 nM on MAGL and no more than 100 nM at FAAH. Besides, the inhibition at 1 µM on MAGL and on FAAH was no less than 75% in each case.

For `O=C(N1CCC2(CCN(Cc3ccc(N4CCOCC4)cc3)C2)C1)n1cc(Cl)cn1` (centres unmarked) [Example 136, (4-chloro-1H-pyrazol-1-yl)(7-(4-morpholinobenzyl)-2,7-diazaspiro[4.4]nonan-2-yl)methanone], on MAGL, the concentration for half-maximal inhibition (IC50) lay in the range of 100 to 1000 nM and the inhibition at 1 µM is no less than 75%. Moreover, at FAAH, the IC50 was 100 to 1000 nM and the inhibition at 1 µM was no less than 75%.

In the case of `O=C(N1CCC2(CCN(Cc3ccc(N4CCOCC4)cc3Cl)C2)C1)n1cc(Cl)cn1` (centres unmarked) [Example 137, (4-chloro-1H-pyrazol-1-yl)(7-(2-chloro-4-morpholinobenzyl)-2,7-diazaspiro[4.4]nonan-2-yl)methanone], the IC50 at MAGL and at FAAH was no more than 100 nM each time. The inhibition at 1 µM at MAGL and on FAAH was no less than 75% each time.

Take `Cc1cc(N2CCOCC2)ccc1CN1CCC2(CCN(C(=O)n3cc(Cl)cn3)C2)C1` (centres unmarked) [Example 138, (4-chloro-1H-pyrazol-1-yl)(7-(2-methyl-4-morpholinobenzyl)-2,7-diazaspiro[4.4]nonan-2-yl)methanone]: at MAGL, the concentration for half-maximal inhibition (IC50) lay within 100 to 1000 nM and the inhibition at 1 µM is no less than 75%. For the same compound, at FAAH, the IC50 is no more than 100 nM and the inhibition at 1 µM was no less than 75%.

As to `Cc1cccc(CN2CC3CN(C(=O)n4cc(C(F)(F)F)cn4)CC3C2)c1` (centres unmarked) [Example 141, (5-(3-methylbenzyl)hexahydropyrrolo[3,4-c]pyrrol-2(1H)-yl)(4-(trifluoromethyl)-1H-pyrazol-1-yl)methanone], on MAGL, the IC50 is no more than 100 nM and the inhibition at 1 µM is no less than 75%. Moreover, at FAAH, the IC50 is no more than 100 nM and the inhibition at 1 µM was no less than 75%.

Take `COc1cccc(CN2CC3CN(C(=O)n4cc(C(F)(F)F)cn4)CC3C2)c1` (centres unmarked) [Example 142, (5-(3-methoxybenzyl)hexahydropyrrolo[3,4-c]pyrrol-2(1H)-yl)(4-(trifluoromethyl)-1H-pyrazol-1-yl)methanone]: on MAGL, the IC50 was no more than 100 nM and the inhibition at 1 µM is no less than 75%. Also, at FAAH, the IC50 was no more than 100 nM and the inhibition at 1 µM was no less than 75%.

As to `O=C(N1CC2CN(Cc3cccc(C(F)(F)F)c3)CC2C1)n1cc(C(F)(F)F)cn1` (centres unmarked) [Example 143, (4-(trifluoromethyl)-1H-pyrazol-1-yl)(5-(3-(trifluoromethyl)benzyl)hexahydropyrrolo[3,4-c]pyrrol-2(1H)-yl)methanone], on MAGL, the IC50 was no more than 100 nM and the inhibition at 1 µM was no less than 75%. For the same compound, on FAAH, the half-inhibitory concentration (IC50) is no more than 100 nM and the inhibition at 1 µM was no less than 75%.

`O=C(N1CC2CN(Cc3cccc(N4CCCC4)c3)CC2C1)n1cc(C(F)(F)F)cn1` (centres unmarked) [Example 144, (5-(3-(pyrrolidin-1-yl)benzyl)hexahydropyrrolo[3,4-c]pyrrol-2(1H)-yl)(4-(trifluoromethyl)-1H-pyrazol-1-yl)methanone]: on MAGL, the IC50 is no more than 100 nM and the inhibition at 1 µM was no less than 75%. For the same compound, at FAAH, the IC50 is no more than 100 nM and the inhibition at 1 µM was no less than 75%.

`O=C(N1CC2CN(Cc3cccc(N4CCOCC4)c3)CC2C1)n1cc(C(F)(F)F)cn1` (centres unmarked) [Example 145, (5-(3-morpholinobenzyl)hexahydropyrrolo[3,4-c]pyrrol-2(1H)-yl)(4-(trifluoromethyl)-1H-pyrazol-1-yl)methanone]: the concentration for half-maximal inhibition (IC50) at MAGL and at FAAH was no more than 100 nM in each case. Further, the inhibition at 1 µM at MAGL and on FAAH was no less than 75% throughout.

`O=C(N1CC2CN(Cc3ccc(F)cc3)CC2C1)n1cc(C(F)(F)F)cn1` (centres unmarked) [Example 146, (5-(4-fluorobenzyl)hexahydropyrrolo[3,4-c]pyrrol-2(1H)-yl)(4-(trifluoromethyl)-1H-pyrazol-1-yl)methanone]: the half-inhibitory concentration (IC50) on MAGL and on FAAH was no more than 100 nM in each case. Further, the inhibition at 1 µM at MAGL and at FAAH was no less than 75% in each case.

On to `Cc1ccc(CN2CC3CN(C(=O)n4cc(C(F)(F)F)cn4)CC3C2)cc1` (centres unmarked) [Example 147, (5-(4-methylbenzyl)hexahydropyrrolo[3,4-c]pyrrol-2(1H)-yl)(4-(trifluoromethyl)-1H-pyrazol-1-yl)methanone], for which, on MAGL, the half-inhibitory concentration (IC50) is no more than 100 nM and the inhibition at 1 µM was no less than 75%. Moreover, at FAAH, the half-inhibitory concentration (IC50) was no more than 100 nM and the inhibition at 1 µM is no less than 75%.

Take `COc1ccc(CN2CC3CN(C(=O)n4cc(C(F)(F)F)cn4)CC3C2)cc1` (centres unmarked) [Example 148, (5-(4-methoxybenzyl)hexahydropyrrolo[3,4-c]pyrrol-2(1H)-yl)(4-(trifluoromethyl)-1H-pyrazol-1-yl)methanone]: on MAGL, the IC50 lay in the range of 100 to 1000 nM and the inhibition at 1 µM was no less than 75%. For the same compound, on FAAH, the half-inhibitory concentration (IC50) was no more than 100 nM and the inhibition at 1 µM was no less than 75%.

With `O=C(N1CC2CN(Cc3cccc(Cl)c3)CC2C1)n1cc(C(F)(F)F)cn1` (centres unmarked) [Example 149, (5-(3-chlorobenzyl)hexahydropyrrolo[3,4-c]pyrrol-2(1H)-yl)(4-(trifluoromethyl)-1H-pyrazol-1-yl)methanone], the half-maximal inhibitory concentration (IC50) is 100 to 1000 nM on MAGL and no more than 100 nM on FAAH. Besides, the inhibition at 1 µM on MAGL and at FAAH was no less than 75% throughout.

Take `O=C(N1CC2CN(Cc3cccc(F)c3)CC2C1)n1cc(C(F)(F)F)cn1` (centres unmarked) [Example 150, (5-(3-fluorobenzyl)hexahydropyrrolo[3,4-c]pyrrol-2(1H)-yl)(4-(trifluoromethyl)-1H-pyrazol-1-yl)methanone]: at MAGL, the concentration for half-maximal inhibition (IC50) was no more than 100 nM and the inhibition at 1 µM was no less than 75%. On FAAH, the concentration for half-maximal inhibition (IC50) was no more than 100 nM and the inhibition at 1 µM is no less than 75%.

`O=C(N1CC2CN(Cc3ccccc3Cl)CC2C1)n1cc(C(F)(F)F)cn1` (centres unmarked) [Example 151, (5-(2-chlorobenzyl)hexahydropyrrolo[3,4-c]pyrrol-2(1H)-yl)(4-(trifluoromethyl)-1H-pyrazol-1-yl)methanone]: the IC50 on MAGL and at FAAH was no more than 100 nM each time. Moreover, the inhibition at 1 µM on MAGL and at FAAH was no less than 75% in each case.

Take `O=C(N1CC2CN(Cc3ccccc3F)CC2C1)n1cc(C(F)(F)F)cn1` (centres unmarked) [Example 152, (5-(2-fluorobenzyl)hexahydropyrrolo[3,4-c]pyrrol-2(1H)-yl)(4-(trifluoromethyl)-1H-pyrazol-1-yl)methanone]: on MAGL, the IC50 is no more than 100 nM and the inhibition at 1 µM was no less than 75%. Also, at FAAH, the half-inhibitory concentration (IC50) is no more than 100 nM and the inhibition at 1 µM is no less than 75%.

`Cc1ccccc1CN1CC2CN(C(=O)n3cc(C(F)(F)F)cn3)CC2C1` (centres unmarked) [Example 153, (5-(2-methylbenzyl)hexahydropyrrolo[3,4-c]pyrrol-2(1H)-yl)(4-(trifluoromethyl)-1H-pyrazol-1-yl)methanone]: the IC50 on MAGL and at FAAH was no more than 100 nM throughout. The inhibition at 1 µM on MAGL and on FAAH was no less than 75% in each case.

In the case of `COc1ccccc1CN1CC2CN(C(=O)n3cc(C(F)(F)F)cn3)CC2C1` (centres unmarked) [Example 154, (5-(2-methoxybenzyl)hexahydropyrrolo[3,4-c]pyrrol-2(1H)-yl)(4-(trifluoromethyl)-1H-pyrazol-1-yl)methanone], on MAGL, the IC50 was no more than 100 nM and the inhibition at 1 µM was no less than 75%. On FAAH, the half-inhibitory concentration (IC50) is no more than 100 nM and the inhibition at 1 µM was no less than 75%.

Turning to `O=C(N1CC2CN(Cc3ccccc3C(F)(F)F)CC2C1)n1cc(C(F)(F)F)cn1` (centres unmarked) [Example 155, (4-(trifluoromethyl)-1H-pyrazol-1-yl)(5-(2-(trifluoromethyl)benzyl)hexahydropyrrolo[3,4-c]pyrrol-2(1H)-yl)methanone], at MAGL, the IC50 is no more than 100 nM and the inhibition at 1 µM is no less than 75%. In addition, on FAAH, the IC50 was no more than 100 nM and the inhibition at 1 µM is no less than 75%.

Consider `O=C(N1CC2CN(Cc3ccccc3N3CCCC3)CC2C1)n1cc(C(F)(F)F)cn1` (centres unmarked) [Example 156, (5-(2-(pyrrolidin-1-yl)benzyl)hexahydropyrrolo[3,4-c]pyrrol-2(1H)-yl)(4-(trifluoromethyl)-1H-pyrazol-1-yl)methanone], for which, at MAGL, the 50% inhibitory concentration (IC50) was no more than 100 nM and the inhibition at 1 µM is no less than 75%. On FAAH, the IC50 was 100 to 1000 nM and the inhibition at 1 µM was no less than 75%.
